This note sets out measurements from patent publication US9096548B2, “Pyrazine amide compounds” (Boehringer Ingelheim International GmbH, priority 2013, dated 2015).

The first assay deals with T1, ENaC (Epithelial Sodium Channel) (Mus musculus, UniProt Q61180+Q9WU38+Q9WU39).
T1 construct: Mouse kidney M−1 cells were cultivated in DMEM; endogenous in cells; host or cells: Mouse kidney M-1 cells, cultivated with dexamethasone on transwell filters
T1 sequence (Q61180 1-699): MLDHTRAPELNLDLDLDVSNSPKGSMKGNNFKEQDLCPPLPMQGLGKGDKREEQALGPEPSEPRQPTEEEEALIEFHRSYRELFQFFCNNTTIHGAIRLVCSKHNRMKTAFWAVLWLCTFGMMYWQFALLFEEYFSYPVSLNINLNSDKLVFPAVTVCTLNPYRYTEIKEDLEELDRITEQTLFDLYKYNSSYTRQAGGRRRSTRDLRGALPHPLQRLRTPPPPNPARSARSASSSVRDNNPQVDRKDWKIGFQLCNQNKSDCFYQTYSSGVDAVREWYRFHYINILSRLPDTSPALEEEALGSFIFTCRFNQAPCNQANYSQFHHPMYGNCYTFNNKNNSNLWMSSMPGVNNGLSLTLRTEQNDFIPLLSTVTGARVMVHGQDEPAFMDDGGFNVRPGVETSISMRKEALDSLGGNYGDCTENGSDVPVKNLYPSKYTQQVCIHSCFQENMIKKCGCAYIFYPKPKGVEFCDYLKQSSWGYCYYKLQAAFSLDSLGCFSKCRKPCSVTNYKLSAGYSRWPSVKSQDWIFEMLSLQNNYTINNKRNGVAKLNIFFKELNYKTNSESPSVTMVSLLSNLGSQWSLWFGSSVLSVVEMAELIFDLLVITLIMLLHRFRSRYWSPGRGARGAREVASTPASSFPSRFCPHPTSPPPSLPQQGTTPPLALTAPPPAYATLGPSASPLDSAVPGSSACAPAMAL
T1 sequence (Q9WU38 1-638): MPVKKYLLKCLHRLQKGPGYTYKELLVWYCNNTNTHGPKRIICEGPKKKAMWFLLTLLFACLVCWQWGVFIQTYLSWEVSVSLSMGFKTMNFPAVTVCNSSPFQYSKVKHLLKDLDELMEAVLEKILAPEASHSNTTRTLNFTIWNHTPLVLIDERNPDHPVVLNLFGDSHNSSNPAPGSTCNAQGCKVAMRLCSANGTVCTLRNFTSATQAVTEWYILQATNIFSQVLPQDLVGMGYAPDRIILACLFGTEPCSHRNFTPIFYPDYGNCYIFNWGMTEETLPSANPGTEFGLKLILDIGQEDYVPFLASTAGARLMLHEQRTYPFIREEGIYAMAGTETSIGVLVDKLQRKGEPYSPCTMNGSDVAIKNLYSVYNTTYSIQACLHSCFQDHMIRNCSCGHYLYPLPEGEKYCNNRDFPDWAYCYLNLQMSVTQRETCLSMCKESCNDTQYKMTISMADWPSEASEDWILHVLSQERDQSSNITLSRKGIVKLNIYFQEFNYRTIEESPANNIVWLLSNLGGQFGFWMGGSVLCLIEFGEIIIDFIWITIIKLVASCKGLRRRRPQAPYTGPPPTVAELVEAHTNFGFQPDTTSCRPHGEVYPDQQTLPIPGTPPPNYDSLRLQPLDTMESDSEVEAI
T1 sequence (Q9WU39 1-655): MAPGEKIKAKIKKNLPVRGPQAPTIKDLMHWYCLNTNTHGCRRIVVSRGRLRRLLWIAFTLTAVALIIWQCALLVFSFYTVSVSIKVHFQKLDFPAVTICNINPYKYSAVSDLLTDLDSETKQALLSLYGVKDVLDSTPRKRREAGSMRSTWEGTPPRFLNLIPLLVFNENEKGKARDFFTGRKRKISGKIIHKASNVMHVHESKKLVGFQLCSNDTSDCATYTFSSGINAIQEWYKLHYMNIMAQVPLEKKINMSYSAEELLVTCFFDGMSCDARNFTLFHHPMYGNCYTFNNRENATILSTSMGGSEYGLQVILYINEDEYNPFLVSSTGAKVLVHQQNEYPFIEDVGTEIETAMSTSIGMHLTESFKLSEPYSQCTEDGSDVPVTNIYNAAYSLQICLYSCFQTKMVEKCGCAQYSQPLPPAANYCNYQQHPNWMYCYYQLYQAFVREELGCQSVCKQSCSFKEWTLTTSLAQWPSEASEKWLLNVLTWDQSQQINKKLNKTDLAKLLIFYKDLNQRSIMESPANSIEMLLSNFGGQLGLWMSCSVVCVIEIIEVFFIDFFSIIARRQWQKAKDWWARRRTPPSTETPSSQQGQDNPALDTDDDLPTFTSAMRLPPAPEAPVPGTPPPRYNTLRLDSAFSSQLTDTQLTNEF
The assay is described as follows: Ussing Chamber assay (short circuit current, amiloride sensitive I_SC). Particulars: Ussing chamber, mouse kidney M-1 cells, short circuit current, compound added to the apical solution; read-out: IC50. In kind it is cell-based. The procedure:
The IC50 values of the example compounds given above were determined in the Ussing Chamber assay.
Ussing Chamber: Mouse kidney M−1 cells were cultivated in DMEM containing 5% FCS and 5 μM dexamethasone for 10 to 12 days on polyester transwell filters. Filters were inserted into a teflon-coated well-plate which fit into the ussing chamber system. Prior to measurement the medium of M−1 cells was replaced with Caco-2 transport buffer (Invitrogen, Germany). During measurements, the Ussing chamber temperature was kept at 37° C. Short circuit currents (I_sc) were measured in the voltage-clamp mode with the software package Lab View for data acquisition and analysis. The transepithelial electrical resistance (TEER) was determined by the application of voltage steps of ±5 mV every 5 sec. Compounds were administered at a final concentration of 3 μM or at increasing concentrations (1-3-10 μM) to the apical solution. At the end of each experiment the amiloride sensitive I_SC was measured by adding 3 μM amiloride to the apical compartment. Results are expressed as inhibition in percent of the amiloride effect or as IC50.
A word on the IC50: it is the concentration that inhibits the measured activity by half. With `Nc1nc(N)c(C(=O)N[C@H]2CCC[N+](CCCc3ccc(OCC(=O)NCCn4ccnc4)cc3)(CCCc3ccc(OCC(=O)NCCn4ccnc4)cc3)C2)nc1Cl` [6.15], the IC50 is 0.009 µM.
The same measure, in the same setting: for `COc1ccc(CCC[N+]2(CCCc3ccc(OC)cc3)CCC(NC(=O)c3nc(Cl)c(N)nc3N)C2)cc1` (stereo not drawn) [Example 1.1] the value was 0.03 µM; for `COc1ccc(CCC[N+]2(CCCc3ccc(OC)cc3)CC(NC(=O)c3nc(Cl)c(N)nc3N)[C@H](c3ccc(C)cc3)C2)cc1` (stereo partly drawn) [Example 1.2], 0.2 µM; for `COc1ccc(CCC[N+]2(CCCc3ccc(OC)cc3)CCCCC(NC(=O)c3nc(Cl)c(N)nc3N)C2)cc1` (stereo not drawn) [Example 1.3], 0.044 µM.
For the compound `COc1ccc(CCC[N+]2(CCCc3ccc(OC)cc3)CCC[C@H](NC(=O)c3nc(Cl)c(N)nc3N)C2)cc1` [Example 1.4], the IC50 is 0.004 µM.
Still for that read-out and setting: for `COc1ccc(CCC[N+]2(CCCc3ccc(OC)cc3)CCC[C@@H](NC(=O)c3nc(Cl)c(N)nc3N)C2)cc1` [Example 1.5] the value was 0.038 µM; for `COc1ccc(CCC[N+](C)(CCCc2ccc(OC)cc2)[C@@H]2C[C@H]2NC(=O)c2nc(Cl)c(N)nc2N)cc1` [Example 2.1], 0.08 µM.
Regarding `COc1ccc(CCC[N+](C)(CCCc2ccc(OC)cc2)C[C@H](C)NC(=O)c2nc(Cl)c(N)nc2N)cc1` [Example 2.2], the IC50 amounted to 0.13 µM.
In the case of `COc1ccc(CCC[N+](C)(CCCc2ccc(OC)cc2)CC(C)(C)NC(=O)c2nc(Cl)c(N)nc2N)cc1` [Example 2.3], the half-inhibitory concentration (IC50) worked out at 0.51 µM.
Same read-out and setting: with `COc1ccc(CCC[N@+]2(C)CCC[C@H](NC(=O)c3nc(Cl)c(N)nc3N)C2)cc1` [Example 3.1] the figure was 0.75 µM; with `COc1ccc(CCC[N@@+]2(C)CCC[C@H](NC(=O)c3nc(Cl)c(N)nc3N)C2)cc1` [Example 3.2], 0.07 µM.
As to `COc1ccc(CCC[N+]2(CCCC3CCCCC3)CCCC(NC(=O)c3nc(Cl)c(N)nc3N)C2)cc1` (stereo not drawn) [Example 3.3], the IC50 was determined as 0.099 µM.
Regarding `COc1ccc(CCC[N+]2(CCCCc3ccccc3)CCCC(NC(=O)c3nc(Cl)c(N)nc3N)C2)cc1` (stereo not drawn) [Example 3.4], the IC50 amounted to 0.034 µM.
For `COc1ccc(CCC[N+]2(CCCc3ccccc3)CCCC(NC(=O)c3nc(Cl)c(N)nc3N)C2)cc1` (stereo not drawn) [Example 3.5], the IC50 worked out at 0.006 µM.
As for `COc1ccc(CCC[N+]2(CCc3ccccc3)CCCC(NC(=O)c3nc(Cl)c(N)nc3N)C2)cc1` (stereo not drawn) [Example 3.6], the IC50 came to 0.06 µM.
`COc1ccc(CCC[N+]2(Cc3ccccc3)CCCC(NC(=O)c3nc(Cl)c(N)nc3N)C2)cc1` (stereo not drawn) [Example 3.7]: the IC50 was 0.14 µM.
Regarding `COc1ccc(CCC[N+]2(C)CC(NC(=O)c3nc(Cl)c(N)nc3N)[C@H](c3ccc(C)cc3)C2)cc1` (stereo partly drawn) [Example 3.8], the IC50 is 0.6 µM.

Still in this assay, the particulars now being: Ussing chamber, mouse kidney M-1 cells, short circuit current; unit inferred; read-out: IC50.
`COc1ccc(CCC[N+](C)(CCCc2ccc(OC)cc2)CC(NC(=O)c2nc(Cl)c(N)nc2N)c2ccccc2)cc1` (stereo not drawn) [Example 2, {2-[(3,5-Diamino-6-chloro-pyrazine-2-carbonyl)-amino]-2-phenyl-ethyl}-bis-[3-(4-methoxy-phenyl)-propyl]-methyl-ammonium chloride]: the IC50 came out at 0.03 µM.

Staying with this assay, now noted: Ussing chamber, mouse kidney M-1 cells, short circuit current; value printed in the example text with μM; read-out: IC50.
As for `COc1ccc(CCC[N+]2(C)CCC(NC(=O)c3nc(Cl)c(N)nc3N)C2)cc1` (stereo not drawn) [Example 3, 3-[(3,5-Diamino-6-chloro-pyrazine-2-carbonyl)-amino]-1-[3-(4-methoxy-phenyl)-propyl]-1-methyl-pyrrolidinium chloride], the IC50 was found to be 0.79 µM.
In the case of `COC(=O)c1ccc(CCC[N+]2(CCCc3ccc(C(=O)OC)cc3)CCCC(NC(=O)c3nc(Cl)c(N)nc3N)C2)cc1` (stereo not drawn) [Example 4, 3-[(3,5-Diamino-6-chloro-pyrazine-2-carbonyl)-amino]-1,1-bis-[3-(4-methoxycarbonylphenyl)-propyl]-piperidinium chloride], the IC50 was found to be 0.34 µM.
Consider `Nc1nc(N)c(C(=O)NC2CCC[N+](CCCc3ccc(C(=O)[O-])cc3)(CCCc3ccc(C(=O)O)cc3)C2)nc1Cl` (stereo not drawn) [Example 4.1, 1,1-Bis-[3-(4-carboxy-phenyl)-propyl]-3-[(3,5-diamino-6-chloro-pyrazine-2-carbonyl)amino]-piperidinium], for which the half-inhibitory concentration (IC50) worked out at 0.35 µM.
